Data as given in US7279494B2, “Antimicrobial [3.1.0] bicyclohexylphenyl-oxazolidinone derivatives and analogues” (Pfizer Inc., priority 2003, dated 2007).
Converted amounts (≈) assume the structure as drawn.

Assays:
Assay type in all cases: cell-based
S. pneumoniae UC9912 = assay: MIC by standard agar dilution, S. pneumoniae UC9912; details: Streptococcus pneumoniae, UC9912, Mueller Hinton agar, incubated overnight at 35° C.
Source text: (§1) The in vitro activity of compounds of the subject invention may be assessed by standard testing procedures such as the determination of minimum inhibitory concentration (MIC) by agar dilution as described in “Approved Standard. Methods for Dilution Antimicrobial Susceptibility Tests for Bacteria that Grow Aerobically,” 3rd ed., published 1993 by the National Committee for Clinical Laboratory standards, Villanova, Pa., USA.
(§2) The in vitro MICs of test compounds may be determined by a standard agar dilution method. A stock drug solution of each analog is prepared in a preferred solvent, usually DMSO:H2O (1:3). Serial 2-fold dilutions of each sample are made using 1.0 mL aliquots of sterile distilled water. To each 1.0 mL aliquot of drug is added 9 mL of molten Mueller Hinton agar medium. The drug-supplemented agar is mixed, poured into 15×100 mm petri dishes, and allowed to solidify and dry prior to inoculation.
(§3) Vials of each of the test organisms are maintained frozen in the vapor phase of a liquid nitrogen freezer. Test cultures are grown overnight at 35° C. on the medium appropriate for the organism. Colonies are harvested with a sterile swab, and cell suspensions are prepared in Trypticase Soy broth (TSB) to equal the turbidity of a 0.5 McFarland standard. A 1:20 dilution of each suspension is made in TSB. The plates containing the drug supplemented agar are inoculated with a 0.001 mL drop of the cell suspension using a Steers replicator, yielding approximately 10^4 to 10^5 cells per spot. The plates are incubated overnight at 35° C.
(§4) Following incubation the Minimum Inhibitory Concentration (MIC μg/mL), the lowest concentration of drug that inhibits visible growth of the organism, is read and recorded.

S. aureus UC9213 = assay: MIC by standard agar dilution, S. aureus UC9213; details: Staphylococcus aureus, UC9213, Mueller Hinton agar, incubated overnight at 35° C.
Source text: as §1, §2, §3, §4

H. influenzae 30063 = assay: MIC by standard agar dilution, H. influenzae 30063; details: Haemophilus influenzae, 30063, agar dilution, Mueller Hinton agar, incubated overnight at 35° C.; read-out: H. influenzae 30063 MIC
Source text: as §1, §2, §3, §4

| SMILES | MIC (S. pneumoniae UC9912) | MIC (S. aureus UC9213) | MIC (H. influenzae 30063) |
| --- | --- | --- | --- |
| CC(=O)NC[C@H]1CN(c2ccc([C@H]3[C@@H]4CN(CCF)C[C@@H]43)c(F)c2)C(=O)O1 [Example 46, N-[((5S)-3-{3-fluoro-4-[exo-(1R,5S)-3-(2-fluoroethyl)-3-azabicyclo[3.1.0]hex-6-yl]phenyl}-2-oxo-1,3-oxazolidin-5-yl)methyl]acetamide] | 2 µg/mL (≈ 5.27 µM) | 8 µg/mL (≈ 21.1 µM) | 16 µg/mL (≈ 42.2 µM) |
| CC(=O)NC[C@H]1CN(c2ccc([C@H]3[C@@H]4CN(CCO)C[C@@H]43)c(F)c2)C(=O)O1 [Example 47, N-[((5S)-3-{3-fluoro-4-[exo-(1R,5S)-3-(2-hydroxyethyl)-3-azabicyclo[3.1.0]hex-6-yl]phenyl}-2-oxo-1,3-oxazolidin-5-yl)methyl]acetamide] | 1 µg/mL (≈ 2.65 µM) | 4 µg/mL (≈ 10.6 µM) | 8 µg/mL (≈ 21.2 µM) |
| CC(=O)NC[C@H]1CN(c2ccc([C@H]3[C@@H]4CN(CCC#N)C[C@@H]43)c(F)c2)C(=O)O1 [Example 48, N-[((5S)-3-{3-fluoro-4-[exo-(1R,5S)-3-(2-cyanoethyl)-3-azabicyclo[3.1.0]hex-6-yl]phenyl}-2-oxo-1,3-oxazolidin-5-yl)methyl]acetamide] | 1 µg/mL (≈ 2.59 µM) | 4 µg/mL (≈ 10.4 µM) | 16 µg/mL (≈ 41.4 µM) |
| CC(=O)NC[C@H]1CN(c2ccc([C@H]3[C@@H]4CN(N(C)C)C[C@@H]43)c(F)c2)C(=O)O1 [Example 49, N-[((5S)-3-{3-fluoro-4-[exo-(1R,5S)-3-dimethylamino-3-azabicyclo[3.1.0]hex-6-yl]phenyl}-2-oxo-1,3-oxazolidin-5-yl)methyl]acetamide] | > 64 µg/mL | > 64 µg/mL | > 64 µg/mL |
| CCC(=O)NC[C@H]1CN(c2ccc([C@H]3[C@@H]4C[S+]([O-])C[C@@H]43)c(F)c2)C(=O)O1 (stereo partly drawn) [Example 50, N-[((5S)-3-{3-fluoro-4-[exo-(1R,5S)-3-oxido-3-thiabicyclo[3.1.0]hex-6-yl]phenyl}-2-oxo-1,3-oxazolidin-5-yl)methyl]proyanamide] | 1 µg/mL (≈ 2.63 µM) | 2 µg/mL (≈ 5.26 µM) | 4 µg/mL (≈ 10.5 µM) |
| CCC(=O)NC[C@H]1CN(c2ccc([C@H]3[C@@H]4CS(=O)(=O)C[C@@H]43)c(F)c2)C(=O)O1 [Example 51, N-[((5S)-3-{4-[exo-(1R,5S)-3,3-dioxido-3-thiabicyclo[3.1.0]hex-6-yl]-3-fluorophenyl}-2-oxo-1,3-oxazolidin-5-yl)methyl]propanamide] | 1 µg/mL (≈ 2.52 µM) | 2 µg/mL (≈ 5.04 µM) | 8 µg/mL (≈ 20.2 µM) |
| O=C(NC[C@H]1CN(c2ccc([C@H]3[C@@H]4C[S+]([O-])C[C@@H]43)c(F)c2)C(=O)O1)C1CC1 (stereo partly drawn) [Example 52, N-[((5S)-3-{3-fluoro-4-[exo-(1R,5S)-3-oxido-3-thiabicyclo[3.1.0]hex-6-yl]phenyl}-2-oxo-1,3-oxazolidin-5-yl)methyl]cyclopropanecarboxamide] | 1 µg/mL (≈ 2.55 µM) | 4 µg/mL (≈ 10.2 µM) | 4 µg/mL (≈ 10.2 µM) |
| O=C(NC[C@H]1CN(c2ccc([C@H]3[C@@H]4CS(=O)(=O)C[C@@H]43)c(F)c2)C(=O)O1)C1CC1 [Example 53, N-[((5S)-3-{3-fluoro-4-[exo-(1R,5S)-3,3-dioxido-3-thiabicyclo[3.1.0]hex-6-yl]phenyl}-2-oxo-1,3-oxazolidin-5-yl)methyl]cyclopropanecarboxamide] | 2 µg/mL (≈ 4.9 µM) | 4 µg/mL (≈ 9.79 µM) | 4 µg/mL (≈ 9.79 µM) |
| CC(F)(F)C(=O)NC[C@H]1CN(c2ccc([C@H]3[C@@H]4C[S+]([O-])C[C@@H]43)c(F)c2)C(=O)O1 (stereo partly drawn) [Example 54, 2,2-difluoro-N-[((5S)-3-{3-fluoro-4-[exo-(1R,5S)-3-oxido-3-thiabicyclo[3.1.0]-6-yl]phenyl}-2-oxo-1,3-oxazolidin-5-yl)methyl]propanamide] | 4 µg/mL (≈ 9.61 µM) | 8 µg/mL (≈ 19.2 µM) | 4 µg/mL (≈ 9.61 µM) |
| CC(F)(F)C(=O)NC[C@H]1CN(c2ccc([C@H]3[C@@H]4CS(=O)(=O)C[C@@H]43)c(F)c2)C(=O)O1 [Example 55, 2,2-difluoro-N-[((5S)-3-{3-fluoro-4-[exo-(1R,5S)-3,3-dioxido-3-thiabicyclo[3.1.0]hex-6-yl]phenyl}-2-oxo-1,3-oxazolidin-5-yl)methyl]propanamide] | 2 µg/mL (≈ 4.63 µM) | 8 µg/mL (≈ 18.5 µM) | 16 µg/mL (≈ 37 µM) |
| O=C(NC[C@H]1CN(c2ccc([C@H]3[C@@H]4C[S+]([O-])C[C@@H]43)c(F)c2)C(=O)O1)C1CCC1 (stereo partly drawn) [Example 56, N-[((5S)-3-{3-fluoro-4-[exo-(1R,5S)-3-oxido-3-thiabicyclo[3.1.0]hex-6-yl]phenyl}-2-oxo-1,3-oxazolidin-5-yl)methyl]cyclobutanecarboxamide] | 2 µg/mL (≈ 4.92 µM) | 4 µg/mL (≈ 9.84 µM) | 16 µg/mL (≈ 39.4 µM) |
| O=C(NC[C@H]1CN(c2ccc([C@H]3[C@@H]4CS(=O)(=O)C[C@@H]43)c(F)c2)C(=O)O1)C1CCC1 [Example 57, N-[((5S)-3-{3-fluoro-4-[exo-(1R,5S)-3,3-dioxido-3-thiabicyclo[3.1.0]hex-6-yl]phenyl}-2-oxo-1,3-oxazolidin-5-yl)methyl]cyclobutanecarboxamide] | 2 µg/mL (≈ 4.73 µM) | 8 µg/mL (≈ 18.9 µM) | 32 µg/mL (≈ 75.7 µM) |
| CCC(=O)NC[C@H]1CN(c2cc(F)c([C@H]3[C@@H]4C[S+]([O-])C[C@@H]43)c(F)c2)C(=O)O1 (stereo partly drawn) [Example 58, N-[((5S)-3-{3,5-difluoro-4-[exo-(1R,5S)-3-oxido-3-thiabicyclo[3.1.0]hex-6-yl]phenyl}-2-oxo-1,3-oxazolidin-5-yl)methyl]propanamide] | 1 µg/mL (≈ 2.51 µM) | 1 µg/mL (≈ 2.51 µM) | 2 µg/mL (≈ 5.02 µM) |
| CCC(=O)NC[C@H]1CN(c2cc(F)c([C@H]3[C@@H]4CS(=O)(=O)C[C@@H]43)c(F)c2)C(=O)O1 [Example 59, N-[((5S)-3-{3,5-difluoro-4-[exo-(1R,5S)-3,3-dioxido-3-thiabicyclo[3.1.0]hex-6-yl]phenyl}-2-oxo-1,3-oxazolidin-5-yl)methyl]propanamide] | 1 µg/mL (≈ 2.41 µM) | 1 µg/mL (≈ 2.41 µM) | 4 µg/mL (≈ 9.65 µM) |

Next, values leading:

| MIC (S. pneumoniae UC9912) | MIC (S. aureus UC9213) | MIC (H. influenzae 30063) | SMILES |
| --- | --- | --- | --- |
| 2 µg/mL (≈ 4.44 µM) | 8 µg/mL (≈ 17.8 µM) | 16 µg/mL (≈ 35.5 µM) | CC(F)(F)C(=O)NC[C@H]1CN(c2cc(F)c([C@H]3[C@@H]4CS(=O)(=O)C[C@@H]43)c(F)c2)C(=O)O1 [Example 60, 2,2-difluoro-N-[((5S)-3-{3,5-difluoro-4-[exo-(1R,5S)-3,3-dioxido-3-thiabicyclo[3.1.0]hex-6-yl]phenyl}-2-oxo-1,3-oxazolidin-5-yl)methyl]propanamide] |
| 1 µg/mL (≈ 2.44 µM) | 2 µg/mL (≈ 4.87 µM) | 8 µg/mL (≈ 19.5 µM) | O=C(NC[C@H]1CN(c2cc(F)c([C@H]3[C@@H]4C[S+]([O-])C[C@@H]43)c(F)c2)C(=O)O1)C1CC1 (stereo partly drawn) [Example 61, N-[((5S)-3-{3,5-difluoro-4-[exo-(1R,5S)-3-oxido-3-thiabicyclo[3.1.0]hex-6-yl]phenyl}-2-oxo-1,3-oxazolidin-5-yl)methyl]cyclopropanecarboxamide] |
| 1 µg/mL (≈ 2.34 µM) | 4 µg/mL (≈ 9.38 µM) | 8 µg/mL (≈ 18.8 µM) | O=C(NC[C@H]1CN(c2cc(F)c([C@H]3[C@@H]4CS(=O)(=O)C[C@@H]43)c(F)c2)C(=O)O1)C1CC1 [Example 62] |
| 1 µg/mL (≈ 2.45 µM) | 2 µg/mL (≈ 4.9 µM) | 8 µg/mL (≈ 19.6 µM) | CCC(=O)NC[C@H]1CN(c2cc(F)c([C@H]3[C@@H]4CN(C(N)=O)C[C@@H]43)c(F)c2)C(=O)O1 [Example 63, exo-(1R,5S)-6-(4-{(5S)-5-[(propanoylamino)methyl]-2-oxo-1,3-oxazolidin-3-yl}-2,6-difluorophenyl)-3-azabicyclo[3.1.0]hexane-3-carboxamide] |
| 2 µg/mL (≈ 4.72 µM) | 4 µg/mL (≈ 9.45 µM) | 8 µg/mL (≈ 18.9 µM) | CCC(=O)NC[C@H]1CN(c2cc(F)c([C@H]3[C@@H]4CN(C(=O)CO)C[C@@H]43)c(F)c2)C(=O)O1 [Example 64, N-[((5S)-3-{3,5-difluoro-4-[exo-(1R,5S)-3-glycoloyl-3-azabicyclo[3.1.0]hex-6-yl]phenyl]-2-oxo-1,3-oxazolidin-5-yl)methyl]propanamide] |
| 2 µg/mL (≈ 4.95 µM) | 2 µg/mL (≈ 4.95 µM) | 16 µg/mL (≈ 39.6 µM) | NC(=O)N1C[C@@H]2[C@H](C1)[C@H]2c1c(F)cc(N2C[C@H](Cn3ccnn3)OC2=O)cc1F [Example 65, exo-(1R,5S)-6-{2,6-difluoro-4-[(5R)-2-oxo-5-(1H-1,2,3-triazol-1-ylmethyl)-1,3-oxazolidin-3-yl]phenyl}-3-azabicyclo[3.1.0]hexane-3-carboxamide] |
| 2 µg/mL (≈ 5.23 µM) | 4 µg/mL (≈ 10.5 µM) | 8 µg/mL (≈ 20.9 µM) | O=C(CO)NC[C@H]1CN(c2ccc([C@H]3[C@@H]4C[S+]([O-])C[C@@H]43)c(F)c2)C(=O)O1 (stereo partly drawn) [Example 66, N-[((5S)-3-{3-fluoro-4-[exo-(1R,5S)-3-oxido-3-thiabicyclo[3.1.0]hex-6-yl]phenyl}-2-oxo-1,3-oxazolidin-5-yl)methyl]-2-hydroxyacetamide] |
| 4 µg/mL (≈ 10 µM) | 4 µg/mL (≈ 10 µM) | 4 µg/mL (≈ 10 µM) | O=C(CO)NC[C@H]1CN(c2ccc([C@H]3[C@@H]4CS(=O)(=O)C[C@@H]43)c(F)c2)C(=O)O1 [Example 67, N-[((5S)-3-{3-fluoro-4-{exo-(1R,5 S)-3,3-dioxido-3-thiabicyclo[3.1.0]hex-6-yl]phenyl}-2-oxo-1,3-oxazolidin-5-yl)methyl]-2-hydroxyacetamide] |
